The values that follow come from patent publication US11046710B2, “Sulfonamide compounds” (DAIICHI SANKYO COMPANY, LIMITED, priority 2016, dated 2021).

The assay has as its system plasma ALP (80-90% containing TNAP). As to the kind of experiment: Inhibitory test of plasma TNAP activity in B6 mouse. It is filed as in vivo. The conditions noted are these: oral, average 0-6 h after administration. The method, then:
After blood sampling from the tail vein using a heparin-treated hematocrit capillary tube (EM Meister Hematocrit Capillary Tube, AS ONE Corp.) (as the sample before compound administration), each test compound suspended in a 0.5% methylcellulose solution (powder purchased from Wako Pure Chemical Industries, Ltd. was adjusted to 0.5% with Otsuka distilled water) was administered orally to the mouse. 1, 2, 4, 6, and 24 hours after the administration, blood was collected from the tail vein using a heparin-treated hematocrit capillary tube to obtain a plasma sample. The plasma sample was added to an assay buffer (1 M Tris, 1 M MgCl2, 20 mM ZnCl2, and water, pH 7.5), and the mixture was left standing for 5 minutes. Then, the absorbance at 405 nm was measured and used as a blank. The substrate pNPP was added to the plasma sample and incubated at room temperature for 180 minutes. Then, the absorbance (ABS: 405 nm) was measured using a microplate reader (model plus 384, Molecular Devices, LLC), and the concentration of produced p-nitrophenol was calculated. The blank was subtracted from all measurement values to calculate TNAP activity at each time point with the TNAP activity of the sample before compound administration defined as 100%. The pharmaceutical effect of the test compound was evaluated by the average inhibition of plasma ALP (80-90% containing TNAP) activity for 6 hours from 0 hour to 6 hour after the administration of the test compound. It was calculated according to the following expression: 100−((plasma ALP activity at 0 hr+plasma ALP activity at 1 hr)*½+(plasma ALP activity at 1 hr+plasma ALP activity at 2 hr)*½+(plasma ALP activity at 2 hr+plasma ALP activity at 4 hr)*2/2+(plasma ALP activity at 4 hr+plasma ALP activity at 6 hr)*2/2)/6 The results are shown in Table 2.

`CCOc1ccc(F)cc1S(=O)(=O)[N-]c1cnc2c(c1)-c1ccnn1[C@@H](C)CO2.[K+]` [Example 19, Potassium [(2-ethoxy-5-fluorophenyl)sulfonyl][(5S)-5-methyl-5,6-dihydropyrazolo[1,5-d]pyrido[3,2-f][1,4]oxazepin-10-yl]azanide]: for the setting “dose 3 mg/kg”, the “Plasma ALP inhibition (6 h ave. inhibition %)” value turned out to be 27.5%. As for `CCc1nnc2n1CCOc1ncc([N-]S(=O)(=O)c3cc(Cl)ccc3OC)cc1-2.[K+]` [Example 4, Potassium [(5-chloro-2-methoxyphenyl)sulfonyl](3-ethyl-5,6-dihydropyrido[3,2-f][1,2,4]triazolo[4,3-d][1,4]oxazepin-10-yl)azanide], the “Plasma ALP inhibition (6 h ave. inhibition %)” value (dose 1 mg/kg) is recorded as 40.7%.

`O=C1c2cc([N-]S(=O)(=O)c3cc(Cl)ccc3OC(F)(F)F)cnc2OC[C@H]2C[C@@H](O)CN12.[K+]` [Example 38, Potassium {[5-chloro-2-(trifluoromethoxy)phenyl]sulfonyl}[(8R,9aR)-8-hydroxy-5-oxo-8,9,9a,10-tetrahydro-5H,7H-pyrido[3,2-f]pyrrolo[2,1-c][1,4]oxazepin-3-yl]azanide]: the “Plasma ALP inhibition (6 h ave. inhibition %)” value (dose 0.3 mg/kg) was 65.5%. As to `CCOc1ccc(F)cc1S(=O)(=O)[N-]c1cnc2c(c1)-c1ccnn1CCO2.[K+]` [Example 10, Potassium 5,6-dihydropyrazolo[1,5-d]pyrido[3,2-f][1,4]oxazepin-10-yl[(2-ethoxy-5-fluorophenyl)sulfonyl]azanide], the “Plasma ALP inhibition (6 h ave. inhibition %)” value (dose 3 mg/kg) is listed as 43.3%. In the case of `CCOc1ccc(F)cc1S(=O)(=O)[N-]c1cnc2c(c1)CN1C(=O)COC[C@H]1CO2.[K+]` [Example 62, Potassium [(2-ethoxy-5-fluorophenyl)sulfonyl][(10aS)-7-oxo-7,8,10a,11-tetrahydro-5H,10H-[1,4]oxazino[3,4-c]pyrido[3,2-f][1,4]oxazepin-3-yl]azanide], for the setting “dose 1 mg/kg”, the “Plasma ALP inhibition (6 h ave. inhibition %)” value came out at 76.0%. Turning to `O=C1c2cc([N-]S(=O)(=O)c3cc(Cl)ccc3OC(F)(F)F)cnc2OC[C@H]2[C@@H](O)CCN12.[K+]` [Example 43, Potassium {[5-chloro-2-(trifluoromethoxy)phenyl]sulfonyl}[(9S,9aS)-9-hydroxy-5-oxo-8,9,9a,10-tetrahydro-5H,7H-pyrido[3,2-f]pyrrolo[2,1-c][1,4]oxazepin-3-yl]azanide], for the setting “dose 0.3 mg/kg”, the “Plasma ALP inhibition (6 h ave. inhibition %)” value was 65.5%. Consider `COc1ccc(Cl)cc1S(=O)(=O)[N-]c1cnc2c(c1)CN1C(=O)[C@@H](O)C[C@H]1CO2.[K+]` [Example 55, Potassium [(5-chloro-2-methoxyphenyl)sulfonyl][(8S,9aS)-8-hydroxy-7-oxo-8,9,9a,10-tetrahydro-5H,7H-pyrido[3,2-f]pyrrolo[2,1-c][1,4]oxazepin-3-yl]azanide], for which the “Plasma ALP inhibition (6 h ave. inhibition %)” value (dose 1 mg/kg) is listed as 65.7%. As to `COc1ncc(Cl)cc1S(=O)(=O)[N-]c1cnc2c(c1)-c1ccnn1[C@@H](C)CO2.[K+]` [Example 22, potassium [(5-chloro-2-methoxypyridin-3-yl)sulfonyl][(5S)-5-methyl-5,6-dihydropyrazolo[1,5-d]pyrido[3,2-f][1,4]oxazepin-10-yl]azanide], where the note is “dose 3 mg/kg”, the “Plasma ALP inhibition (6 h ave. inhibition %)” value is listed as 28.4%.
